# In patent US8790718B2, “Method of disinfection or infection control against norovirus” (Hiroshima University, priority 2007, dated 2014):
# Test system: norovirus
# Assay: Anti-norovirus characteristics test (viral genome RNA by real-time PCR)
# Conditions: comparative test results of Example 1
# Procedure: A frozen stock solution of a norovirus isolated from stools of a patient and cryopreserved at −80° C. was thawed on ice. A hundred microliters of the norovirus stock solution was diluted ten times with phosphate-buffered saline (PBS) and was spun in a refrigerated centrifuge at 10,000 rpm for 20 minutes to remove a precipitate. The resulting “norovirus test solution” (950 μL solution) was used in the following examples.
# The “real-time PCR” in the following examples was performed in accordance with a document “Detection Method for Norovirus” attached to a notice (Notice No. 1105001 from the Inspection and Safety Division, dated Nov. 5, 2003. See http://www.mhlw.go.jp/topics/syokuchu/kanren/kanshi/031105-1.html) issued by the Director of the Inspection and Safety Division, Department of Food Safety, Pharmaceutical and Food Safety Bureau, Ministry of Health, Labour and Welfare.
# The real-time PCR counts the number of viral genomes in the states of […] in FIG. 1. In the following examples, only elimination of (the RNA of) a norovirus illustrated in (c) is rated as “efficacious”, and the survival of (the RNA of) a norovirus illustrated in (b) is rated as “inefficacious” even if the infectivity and proliferative capacity of the norovirus are lost. Nevertheless, an anti-norovirus composition according to the present invention is rated as more efficacious than conventional compositions. Taking the state of a norovirus illustrated in (b) into account, an anti-norovirus composition according to the present invention should therefore have still higher practical efficacy.
# Twenty-five microliters of the norovirus test solution and 25 μL of each of the compositions (A1 to A5 or B1 to B7) were sufficiently mixed. […] After the diluted solution was subjected to treatments, such as RNA extraction and cDNA synthesis, viral genome RNAs remaining in the diluted solution was counted by real-time PCR. […] These measured values for the sample solutions and the corresponding controls were compared to determine the inhibition rates of the compositions for the norovirus.
row,Compound,efficacy for a norovirus (in words)
1,O=C(O)c1cc(O)c(O)c(O)c1 [gallic acid],no efficacy
2,"CCCOC(=O)c1cc(O)c(O)c(O)c1 [propyl gallate, gallic acid propyl ester]",no efficacy
3,catechin,no efficacy
